How the values were obtained:
[1] = preliminary studies; cited from earlier work
[2] = test system: GABA/benzodiazepine receptor ionophore complex; settings: in vitro; cited from earlier work
rats = settings: cortical application of tungstic acid gel in rats; cited from earlier work
beagle dogs = settings: dog, in vivo, 75 mg/kg/day; cited from earlier work
rat hippocampal slices = settings: 10-30 μg/mL; cited from earlier work
[3] = in vivo; cited from earlier work
kindled rat model = settings: in vivo; cited from earlier work
cats [4] = settings: cortical freezing in cats; cited from earlier work
[5] = test system: obese subjects (BMI of 30-44 kg/m^2); assay: 16-week randomized, double-blind, placebo-controlled trial of zonisamide in obesity; assay type: in vivo, human
Experimental: Objective: Short-term efficacy and safety of zonisamide in the treatment of obesity was evaluated. Inclusion Criteria: (1) Age 21-50; (2) BMI of 30-44 kg/m^2; and (3) Otherwise healthy as determined by the principal investigator. […] Method: 60 subjects were assigned to receive zonisamide or placebo (1:1 ratio) in a randomized, double-blind fashion for 16 weeks in addition to a slightly hypocaloric (500 kcal/day deficit) diet. Zonisamide dosing was flexible with a maximum of 600 mg/day. Zonisamide was started at 100 mg/d. Based on tolerability, the dose was titrated up as follows: Weeks 3-4: 200 mg/d; Weeks 5-6: 300 mg/d; Weeks 7-12: 400 mg/d. At the end of week 12, for those where at least 5% weight loss was not achieved, the dose was further increased to 600 mg/d. The entire dose is given at bedtime. However, based on tolerability, a part of the daily dose may be given in the morning.

[6] = test system: cultured mouse spinal cord neurons; settings: 10-30 μg/mL; cited from earlier work
cats [7] = settings: electrical stimulation of the visual cortex; cited from earlier work
patients = patients treated with zonisamide; cited from earlier work

SMILES	effect on appetite and binging [1]	binding to GABA/benzodiazepine receptor ionophore complex [2]	interictal spikes and secondarily generalized seizures (rats)	body weight change in chronic toxicity test (beagle dogs)	effect on neuronal or glial uptake of [^3H]-GABA (rat hippocampal slices)	adverse effect on appetite [3]	anticonvulsant activity in threshold for generalized seizures (kindled rat model)	interictal spikes and secondarily generalized seizures (cats [4])	average bodyweight lost ([5]; 16-week period, all randomized subjects, last observation carried forward, flexible dosing, maximum 600 mg/day, plus hypocaloric diet, p<0.0001 vs placebo) [%]	greater weight loss over placebo treatment (random coefficient regression estimate) ([5]; 16-week study duration, effects for age, race, gender, BMI, percent body fat, p<0.0001) [kg]	efficacy versus placebo as adjunct to hypocaloric diet in treatment of obesity ([5]; 16 weeks)	tolerability / side effects ([5]; 16 weeks, up to 600 mg/day)	subjects who lost ≥5% weight ([5]; 16 weeks, responders/subjects in group, p<0.0003 vs placebo)	effect on postsynaptic GABA or glutamate responses [6]	effect on synaptically-driven electrical activity [6]	duration of cortical focal seizures (cats [7])	course of weight loss over time (patients)	weight loss as adverse event (patients)
CC1(C)O[C@@H]2[C@@H](CO[C@@]3(COS(N)(=O)=O)OC(C)(C)O[C@@H]23)O1 [topiramate]	suppress the appetite and to reduce the amount of binging																	
NS(=O)(=O)Cc1noc2ccccc12 [zonisamide, 1,2-benzisoxazole-3-methanesulfonamide]		binds to the GABA/benzodiazepine receptor ionophore complex in an allosteric fashion which does not produce changes in chloride flux	suppresses both interictal spikes and the secondarily generalized seizures	early body weight losses occurred	without affecting	loss of appetite as an adverse effect	demonstrated an anticonvulsant activity	suppresses both interictal spikes and the secondarily generalized seizures	5.98	4.99	significantly more effective than placebo	tolerated well with minimal side effects	17/30	without affecting postsynaptic GABA or glutamate responses	suppresses synaptically-driven electrical activity	reduced the duration of cortical focal seizures	the weight loss did not continue over time	weight loss was an adverse event

Source: patent publication US20050026977A1, “Zonisamide use in eating disorders” (priority 2002, published 2005)
